In patent US20260294905A1, “USE OF PLURALITY OF COMPOUNDS IN PREPARATION OF DRUG FOR TREATING MYELOPROLIFERATIVE NEOPLASMS” (THE SECOND XIANGYA HOSPITAL OF CENTRAL SOUTH UNIVERSITY, priority 2022, published 2026):
Several values for one entry are separate records, joined by “and”; a condition that tells them apart may be missing. Equal entries are not always repeated. Entries after “also recorded” stand apart in the source; their conditions may differ.

Key:
[1] = tested on: HEL cells (human erythroleukemia cell line); experiment: CellTiter-Lumi luminescence proliferation of naive HEL cells, 48 h; format: cell-based; conditions: for inhibition of proliferation of HEL cells (in words): 0.1-10 μM; for activity at 0.1 µM / activity at 0.3 µM / activity at 1 µM / activity at 3 µM / activity at 10 µM: Homo sapiens, 48 h, vs DMSO control, read-out: average proliferation rate of HEL cells
Experimental: (§1) HELs (Human erythroleukemia cell lines) and Ruxolitinib-resistant HEL cells were both cultured in a RPMI medium (Gibco) containing 20% heat-inactivated fetal bovine serum (Gibco) and 1% penicillin/streptomycin.
(§2) Ruxolitinib and other compounds were all purchased from Selleck, dissolved in DMSO with a stock solution concentration of 10 mM, and cryopreserved at −80° C. The working solution was diluted to a specified multiple using a RPMI medium and then used for treating cells. Ruxolitinib was specifically ruxolitinib phosphate.
(§3) To detect the antiproliferative effect of the inhibitor, the aforementioned cell lines were cultured at 3,000 cells/100 μL of the system per well, added with increasing concentrations of Ruxolitinib (concentration gradients of HEL cells: 0, 0.1, 1, 2.5, 5 μM; or 0, 0.1, 0.3, 1, 3, 10 μM), and added with DMSO to make up to the same amount. 4 parallel replicate groups were set up, and 3 blank wells (wells containing culture media without cells) were set up.
(§4) A calculation formula of the cell proliferation rate was: cell proliferation rate=(Luminescence value of the group added with the drug-average Luminescence value of the blank wells)/(Luminescence value of the DMSO control group-average Luminescence value of the blank wells)×100%.
In order to detect the effects of the compounds on the proliferation abilities of drug-resistant myeloproliferative neoplasm cells, the method was to treat the HEL naïve cell lines with increasing concentrations of Ruxolitinib and the compounds respectively, and to detect the proliferation of the cells by a CellTiter-Lumi™ luminescence method.

[2] = tested on: HEL^RE cells (Ruxolitinib-resistant HEL); experiment: CellTiter-Lumi luminescence proliferation of Ruxolitinib-resistant HEL^RE cells, 48 h; format: cell-based, human; conditions: HEL^RE cells; for inhibition of proliferation of HEL^RE cells (in words): 0.1-10 μM; for activity at 0.1 µM / activity at 0.3 µM / activity at 1 µM / activity at 3 µM / activity at 10 µM: Homo sapiens, 48 h, vs DMSO control, read-out: average proliferation rate of HEL^RE cells
Description: as §1
A Ruxolitinib-resistant HEL model, i.e., a HEL^RE model, was constructed by starting the addition of Ruxolitinib at a concentration lower than the IC50 of naïve cells and slowly incrementing the concentration to a high concentration, and preventing the cells from being killed. Our starting concentration was 0.1 μM. The drug was added upon occurrence of cell proliferation. The drug addition gradient was an increment at a multiple of 1.25, and the final concentration was 2.0 μM. Stable drug-resistant cells were obtained after 4-6 weeks.
as §2, §3, §4
A method for evaluating whether the model was successfully constructed was to compare the IC50s of resistant cells and naïve cells.
In order to detect the effects of five compounds on the proliferation abilities of drug-resistant myeloproliferative neoplasm cells, the method was to treat HEL^RE with increasing concentrations of Ruxolitinib and the five compounds respectively, and to detect the proliferation of the cells by a CellTiter-Lumi™ luminescence method.

[3] = tested on: HEL cells (human erythroleukemia cell line); experiment: Annexin V-PI staining and flow cytometry, apoptosis of HEL cells, 24 h; format: cell-based; conditions: for promotion of apoptosis of HEL cells (in words): 0.1-10 μM
Experimental: • 1. the cell lines and inhibitors were the same as those in Example 1. • 2. detection of cell apoptosis
(§5) To detect the apoptosis-promoting effect of the inhibitors, HEL naïve cell strains were treated with Ruxolitinib and the compounds for 24 hours respectively (with concentrations of: 0, 0.1, 0.5, 1 μM or 0, 0.1, 0.3, 1, 3, 10 μM), and added with DMSO to make up to the same amount. 3 parallel replicate groups were set up, and cell apoptosis was detected by Annexin V and PI staining followed by flow cytometry.
(§6) A calculation formula of cell apoptosis rate was: cell apoptosis rate=the ratio of early apoptotic cells (Annexin V^+/PI^−)+the ratio of late apoptotic cells and necrotic cells (Annexin V^+/PI^+).

[4] = tested on: HEL^RE cells (Ruxolitinib-resistant HEL); experiment: Annexin V-PI staining and flow cytometry, apoptosis of HEL^RE cells; format: cell-based, human; conditions: for average apoptosis rate of HEL-RE cells: 24 h; for promotion of apoptosis of HEL^RE cells (in words): 0.1-10 μM
Experimental: as §5, §6
In order to detect the effects of compounds on the abilities of drug-resistant myeloproliferative neoplasm cells, the method was to treat HEL^RE with increasing concentrations of Ruxolitinib and the compounds, and to detect cell apoptosis by Annexin V and PI staining followed by flow cytometry.

neuroblastoma cells = conditions: cited from earlier work
[5] = tested on: neuroblastoma mouse model; conditions: cited from earlier work
[6] = tested on: non-small cell lung cancer; conditions: non-small cell lung cancer patients, RP2D 275 mg per day; cited from earlier work
[7] = tested on: progressive or metastatic solid tumors; conditions: RP2D 2.7 mg, cited from earlier work
[8] = tested on: preclinical model including melanoma; conditions: cited from earlier work
[9] = orally once a week, RP2D 420 mg/m^2 (not exceeding 600 mg); cited from earlier work

Compound: COc1cc2ncnc(Oc3cccc(NC(=O)Nc4cc(C(C)(C)C(F)(F)F)on4)c3)c2cc1OC [Agerafenib]
- inhibition of proliferation of HEL cells (in words) [1]: can successfully inhibit the proliferation of the HEL cells; also recorded: could inhibit the proliferation of the HEL cells, and this effect was increased with the increase of the drug concentration
- activity at 0.1 µM [1]: 90.1 ± 3.01%
- activity at 0.3 µM [1]: 93.8 ± 12.4%
- activity at 1 µM [1]: 83.2 ± 4.45%
- activity at 3 µM [1]: 70.3 ± 3.47%
- activity at 10 µM [1]: 40.1 ± 8.26%
- inhibition of proliferation of HEL^RE cells (in words) [2]: could inhibit the proliferation of the HEL^RE cells, and this effect was increased with the increase of the drug concentration
- activity at 0.1 µM [2]: 4.26 ± 0.46%
- activity at 0.3 µM [2]: 2.77 ± 0.43%
- activity at 1 µM [2]: 2.75 ± 0.94%
- activity at 3 µM [2]: 2.21 ± 0.04%
- activity at 10 µM [2]: 1.86 ± 0.23%
- average apoptosis rate of HEL cells ([3]; 0.1 μM): 4.41±0.630% and 4.41%
- average apoptosis rate of HEL cells ([3]; 0.3 μM): 4.98±1.09% and 4.98%
- average apoptosis rate of HEL cells ([3]; 1 μM): 3.42±0.140% and 3.42%
- average apoptosis rate of HEL cells ([3]; 3 μM): 5.27%
- average apoptosis rate of HEL cells ([3]; 10 μM): 5.43±0.720% and 5.43%
- promotion of apoptosis of HEL cells (in words) [3]: could not promote apoptosis of the HEL cells
- average apoptosis rate of HEL-RE cells ([4]; 0.1 μM): 7.05±0.920% and 7.05%
- average apoptosis rate of HEL-RE cells ([4]; 0.3 μM): 5.33±0.430% and 5.33%
- average apoptosis rate of HEL-RE cells ([4]; 1 μM): 5.11±0.210% and 5.11%
- average apoptosis rate of HEL-RE cells ([4]; 3 μM): 7.37±0.220% and 7.37%
- average apoptosis rate of HEL-RE cells ([4]; 10 μM): 8.22±0.390% and 8.22%
- promotion of apoptosis of HEL^RE cells (in words) [4]: could not promote apoptosis of the HEL^RE cells
- proliferation and colony formation of neuroblastoma cells (neuroblastoma cells; in vitro): able to inhibit the proliferation and colony formation of neuroblastoma cells in vitro
- combination with traditional chemotherapy drugs (neuroblastoma cells; with traditional chemotherapy drugs): had a synergistic effect with traditional chemotherapy drugs
- tumor growth and survival [5]: able to inhibit tumor growth of and prolong the survival of mice significantly
- anti-tumor activity [6]: good anti-tumor activity

Compound: CNS(=O)(=O)Nc1nccc(Cc2c(C)c3ccc(Oc4ncccn4)cc3oc2=O)c1F [RO5126766]
- inhibition of proliferation of HEL cells (in words) [1]: can successfully inhibit the proliferation of the HEL cells; also recorded: could inhibit the proliferation of the HEL cells, and this effect increased with increase in the drug concentration
- activity at 0.1 µM [1]: 85.8 ± 2.75%
- activity at 0.3 µM [1]: 89 ± 13.5%
- activity at 1 µM [1]: 83.4 ± 3.31%
- activity at 3 µM [1]: 61.6 ± 3.79%
- activity at 10 µM [1]: 47.1 ± 5.47%
- inhibition of proliferation of HEL^RE cells (in words) [2]: could inhibit the proliferation of the HEL^RE cells, and this effect increased with increase in the drug concentration
- activity at 0.1 µM [2]: 48.1 ± 3.37%
- activity at 0.3 µM [2]: 41.4 ± 3.16%
- activity at 1 µM [2]: 35.2 ± 2.89%
- activity at 3 µM [2]: 31.5 ± 1.9%
- activity at 10 µM [2]: 27.7 ± 2.34%
- average apoptosis rate of HEL cells ([3]; 0.1 μM): 6.00±0.290% and 6.00%
- average apoptosis rate of HEL cells ([3]; 0.3 μM): 6.96±1.16% and 6.96%
- average apoptosis rate of HEL cells ([3]; 1 μM): 6.11±0.640% and 6.11%
- average apoptosis rate of HEL cells ([3]; 3 μM): 8.32±2.69% and 8.32%
- average apoptosis rate of HEL cells ([3]; 10 μM): 6.73±1.20% and 6.73%
- promotion of apoptosis of HEL cells (in words) [3]: could not promote apoptosis of the HEL cells
- average apoptosis rate of HEL-RE cells ([4]; 0.1 μM): 6.25±0.920% and 6.25%
- average apoptosis rate of HEL-RE cells ([4]; 0.3 μM): 5.88±1.25% and 5.88%
- average apoptosis rate of HEL-RE cells ([4]; 1 μM): 7.32±1.74% and 7.32%
- average apoptosis rate of HEL-RE cells ([4]; 3 μM): 4.71±0.350% and 4.71%
- average apoptosis rate of HEL-RE cells ([4]; 10 μM): 5.42±0.830% and 5.42%
- promotion of apoptosis of HEL^RE cells (in words) [4]: could not promote apoptosis of the HEL^RE cells
- anti-tumor activity ([7]; 4 consecutive days a week for 4 weeks): good anti-tumor activity
- side effects [7]: tolerable side effects

Compound: C[C@@H](NC(=O)c1ncnc(N)c1Cl)c1ncc(C(=O)Nc2cc(C(F)(F)F)c(Cl)cn2)s1 [MLN2480]
- inhibition of proliferation of HEL cells (in words) [1]: could not inhibit the proliferation of the HEL cells
- activity at 0.1 µM [1]: 98.5 ± 2.62%
- activity at 0.3 µM [1]: 97.9 ± 3.55%
- activity at 1 µM [1]: 97.3 ± 0.78%
- activity at 3 µM [1]: 98.3 ± 0.65%
- activity at 10 µM [1]: 97.6 ± 3.47%
- inhibition of proliferation of HEL^RE cells (in words) [2]: could inhibit the proliferation of drug-resistant myeloproliferative neoplasm cells, and this effect was increased with the increase of the drug concentration
- overall effectiveness among the compounds ([2]; proliferation and apoptosis taken together): more effective
- activity at 0.1 µM [2]: 103 ± 8.58%
- activity at 0.3 µM [2]: 75.1 ± 3.54%
- activity at 1 µM [2]: 46.5 ± 9.45%
- activity at 3 µM [2]: 18.9 ± 4.22%
- activity at 10 µM [2]: 10.3 ± 0.49%
- average apoptosis rate of HEL cells ([3]; 0.1 μM): 4.61±2.768% and 4.61%
- average apoptosis rate of HEL cells ([3]; 0.3 μM): 3.85±0.101% and 3.85%
- average apoptosis rate of HEL cells ([3]; 1 μM): 5.53±1.22% and 5.53%
- average apoptosis rate of HEL cells ([3]; 3 μM): 10.04±2.663% and 10.04%
- average apoptosis rate of HEL cells ([3]; 10 μM): 8.8±1.063% and 8.8%
- promotion of apoptosis of HEL cells (in words) [3]: could not promote the apoptosis of myeloproliferative neoplasm cells
- average apoptosis rate of HEL-RE cells ([4]; 0.1 μM): 6.54±0.560% and 6.54%
- average apoptosis rate of HEL-RE cells ([4]; 0.3 μM): 7.80±0.900% and 7.80%
- average apoptosis rate of HEL-RE cells ([4]; 1 μM): 10.9±0.390% and 10.9%
- average apoptosis rate of HEL-RE cells ([4]; 3 μM): 15.5±0.580% and 15.5%
- average apoptosis rate of HEL-RE cells ([4]; 10 μM): 13.8±0.775% and 13.8%
- promotion of apoptosis of HEL^RE cells (in words) [4]: could promote apoptosis of Ruxolitinib-resistant myeloproliferative neoplasm cells, and this effect was increased with the increase of the drug concentration; also recorded: can promote the apoptosis of the HEL^RE cells
- anti-tumor activity [8]: good anti-tumor activity
- safety [9]: good safety and low toxic and side effects
